{"source": "PubChem BioAssay AID1259407", "about": "(Chemical Carcinogenesis Research Information System (CCRIS), 2018)", "tested_on": "CCRIS mutagenicity, Ames/micronucleus/aberration tests", "test": "CCRIS mutagenicity studies", "note": "Activity calls are given as the source filed them. The rule behind the calls is not given here."}
{"smiles": "Nc1ccc(-c2ccc(N)cc2)cc1", "values": [{"measurement": "mutagenic call", "setting": "Test System: AMES SALMONELLA TYPHIMURIUM, Strain/Indicator: TA100, Metabolic Activation: RAT, BLADDER, S-9, PCB, Method: FLUCTUATION TEST", "result": "active; positive"}, {"measurement": "mutagenic call", "setting": "Test System: AMES SALMONELLA TYPHIMURIUM, Strain/Indicator: TA100, Metabolic Activation: S-9, Method: STANDARD PLATE", "result": "inactive; negative"}, {"measurement": "mutagenic call", "setting": "Test System: AMES SALMONELLA TYPHIMURIUM, Strain/Indicator: TA100, Metabolic Activation: TOBACCO CELL-FREE TXIMX, Method: PREINCUBATION", "result": "inactive; negative"}, {"measurement": "mutagenic call", "setting": "Test System: AMES SALMONELLA TYPHIMURIUM, Strain/Indicator: TA1538, Metabolic Activation: GUINEA PIG, LIVER, INTACT HEPATOCYTES, Method: PREINCUBATION", "result": "active; positive"}, {"measurement": "mutagenic call", "setting": "Test System: AMES SALMONELLA TYPHIMURIUM, Strain/Indicator: TA1538, Metabolic Activation: GUINEA PIG, LIVER, S-9, ACETYL COENZYME A, Method: PREINCUBATION", "result": "active; positive"}, {"measurement": "mutagenic call", "setting": "Test System: AMES SALMONELLA TYPHIMURIUM, Strain/Indicator: TA1538, Metabolic Activation: GUINEA PIG, LIVER, S-9, Method: PREINCUBATION", "result": "active; positive"}, {"measurement": "mutagenic call", "setting": "Test System: AMES SALMONELLA TYPHIMURIUM, Strain/Indicator: TA1538, Metabolic Activation: HAMSTER, LIVER, INTACT HEPATOCYTES, Method: PREINCUBATION", "result": "active; positive"}, {"measurement": "mutagenic call", "setting": "Test System: AMES SALMONELLA TYPHIMURIUM, Strain/Indicator: TA1538, Metabolic Activation: HAMSTER, LIVER, S-9, ACETYL COENZYME A, Method: PREINCUBATION", "result": "active; positive"}, {"measurement": "mutagenic call", "setting": "Test System: AMES SALMONELLA TYPHIMURIUM, Strain/Indicator: TA1538, Metabolic Activation: HAMSTER, LIVER, S-9, Method: PREINCUBATION", "result": "active; positive"}, {"measurement": "mutagenic call", "setting": "Test System: AMES SALMONELLA TYPHIMURIUM, Strain/Indicator: TA1538, Metabolic Activation: HAMSTER, LIVER, S-9, Method: STANDARD PLATE", "result": "active; positive"}, {"measurement": "mutagenic call", "setting": "Test System: AMES SALMONELLA TYPHIMURIUM, Strain/Indicator: TA1538, Metabolic Activation: RAT, LIVER, INTACT HEPATOCYTES, Method: PREINCUBATION", "result": "active; positive"}, {"measurement": "mutagenic call", "setting": "Test System: AMES SALMONELLA TYPHIMURIUM, Strain/Indicator: TA1538, Metabolic Activation: RAT, LIVER, S-9, ACETYL COENZYME A, Method: PREINCUBATION", "result": "active; positive"}, {"measurement": "mutagenic call", "setting": "Test System: AMES SALMONELLA TYPHIMURIUM, Strain/Indicator: TA1538, Metabolic Activation: RAT, LIVER, S-9, AROCLOR 1254, Method: STANDARD PLATE", "result": "active; positive"}, {"measurement": "mutagenic call", "setting": "Test System: AMES SALMONELLA TYPHIMURIUM, Strain/Indicator: TA1538, Metabolic Activation: RAT, LIVER, S-9, PHENOBARBITAL, Method: STANDARD PLATE", "result": "active; positive"}, {"measurement": "mutagenic call", "setting": "Test System: AMES SALMONELLA TYPHIMURIUM, Strain/Indicator: TA1538, Metabolic Activation: RAT, LIVER, S-9, Method: PREINCUBATION", "result": "active; positive"}, {"measurement": "mutagenic call", "setting": "Test System: AMES SALMONELLA TYPHIMURIUM, Strain/Indicator: YG1021, Metabolic Activation: TOBACCO CELL-FREE TXIMX, Method: PREINCUBATION", "result": "active; positive"}, {"measurement": "mutagenic call", "setting": "Test System: AMES SALMONELLA TYPHIMURIUM, Strain/Indicator: YG1021, Metabolic Activation: TOBACCO TX1 CELLS, Method: PREINCUBATION", "result": "active; positive"}, {"measurement": "mutagenic call", "setting": "Test System: AMES SALMONELLA TYPHIMURIUM, Strain/Indicator: YG1024, Metabolic Activation: HUMAN, HEPATOMA CELLS, BENZO[A]ANTHRACENE, Method: PREINCUBATION", "result": "active; positive"}, {"measurement": "mutagenic call", "setting": "Test System: AMES SALMONELLA TYPHIMURIUM, Strain/Indicator: YG1024, Metabolic Activation: HUMAN, HEPATOMA CELLS, Method: PREINCUBATION", "result": "active; positive"}, {"measurement": "mutagenic call", "setting": "Test System: AMES SALMONELLA TYPHIMURIUM, Strain/Indicator: YG1024, Metabolic Activation: PLANT CELLS, Method: PREINCUBATION", "result": "active; positive"}, {"measurement": "mutagenic call", "setting": "Test System: AMES SALMONELLA TYPHIMURIUM, Strain/Indicator: YG1024, Metabolic Activation: RAT, LIVER, S-9, AROCLOR 1254, Method: PREINCUBATION", "result": "active; positive"}, {"measurement": "mutagenic call", "setting": "Test System: AMES SALMONELLA TYPHIMURIUM, Strain/Indicator: YG1024, Metabolic Activation: RAT, LIVER, S-9, Method: PREINCUBATION", "result": "active; positive"}, {"measurement": "mutagenic call", "setting": "Test System: AMES SALMONELLA TYPHIMURIUM, Strain/Indicator: YG1024, Metabolic Activation: TOBACCO CELL-FREE EXTRACT, Method: PREINCUBATION", "result": "active; positive"}, {"measurement": "mutagenic call", "setting": "Test System: AMES SALMONELLA TYPHIMURIUM, Strain/Indicator: YG1024, Metabolic Activation: TOBACCO CELL-FREE TXIMX, Method: PREINCUBATION", "result": "active; positive"}, {"measurement": "mutagenic call", "setting": "Test System: AMES SALMONELLA TYPHIMURIUM, Strain/Indicator: YG1024, Metabolic Activation: TOBACCO TX1 CELLS, Method: PREINCUBATION", "result": "active; positive"}, {"measurement": "mutagenic call", "setting": "Test System: AMES SALMONELLA TYPHIMURIUM, Strain/Indicator: YG1026, Metabolic Activation: TOBACCO CELL-FREE TXIMX, Method: PREINCUBATION", "result": "inactive; negative"}, {"measurement": "mutagenic call", "setting": "Test System: AMES SALMONELLA TYPHIMURIUM, Strain/Indicator: YG1026, Metabolic Activation: TOBACCO TX1 CELLS, Method: PREINCUBATION", "result": "inactive; negative"}, {"measurement": "mutagenic call", "setting": "Test System: AMES SALMONELLA TYPHIMURIUM, Strain/Indicator: YG1029, Metabolic Activation: TOBACCO CELL-FREE TXIMX, Method: PREINCUBATION", "result": "active; positive"}, {"measurement": "mutagenic call", "setting": "Test System: AMES SALMONELLA TYPHIMURIUM, Strain/Indicator: YG1029, Metabolic Activation: TOBACCO TX1 CELLS, Method: PREINCUBATION", "result": "active; positive"}, {"measurement": "mutagenic call", "setting": "Test System: Ames Salmonella typhimurium, Strain/Indicator: TA98, Metabolic Activation: Rat, Liver, S-9, Sodium phenobarbitone, Method: Preincubation", "result": "active; positive, test conducted under both aerobic and anaerobic conditions."}, {"measurement": "mutagenic call", "setting": "Test System: Ames Salmonella typhimurium, Strain/Indicator: TA102, Metabolic Activation: None, Method: Preincubation", "result": "inactive; negative"}, {"measurement": "mutagenic call", "setting": "Test System: Ames Salmonella typhimurium, Strain/Indicator: TA102, Metabolic Activation: Rat, Liver, S-9, Aroclor 1254 in 0.154 M KCl, Method: Preincubation", "result": "active; positive (coumestrol, ellagic acid, (-) epicatechin, (-) epichatechingallate, ga"}, {"measurement": "mutagenic call", "setting": "Test System: Ames Salmonella typhimurium, Strain/Indicator: TA102, Metabolic Activation: Rat, liver, S-9, Aroclor 1254, 4%, Method: Preincubation", "result": "active; positive"}, {"measurement": "mutagenic call", "setting": "Test System: Ames Salmonella typhimurium, Strain/Indicator: TA1538, Metabolic Activation: Rat, Liver, S-9, Sodium phenobarbitone, Method: Preincubation", "result": "active; positive, test conducted under both aerobic and anaerobic conditions."}, {"measurement": "mutagenic call", "setting": "Test System: CHINESE HAMSTER OVARY, Strain/Indicator: CHO-K1-BH4 (HGPRT)/6-THIOGUANINE, Metabolic Activation: RAT, LIVER, S-9, Method: SUSPENSION/PLATE", "result": "inactive; negative"}, {"measurement": "mutagenic call", "setting": "Test System: CHINESE HAMSTER OVARY, Strain/Indicator: CHO-K1-BH4 (HGPRT), Metabolic Activation: RAT, LIVER, S-9, AROCLOR, Method: SUSPENSION/PLATE", "result": "active; positive"}, {"measurement": "mutagenic call", "setting": "Test System: CHINESE HAMSTER V-79, Strain/Indicator: V-79/6-THIOGUANINE, Metabolic Activation: MOUSE, LIVER, S-9, Method: SUSPENSION/PLATE", "result": "active; positive"}, {"measurement": "mutagenic call", "setting": "Test System: CHINESE HAMSTER V-79, Strain/Indicator: V-79/6-THIOGUANINE, Metabolic Activation: NONE, Method: SUSPENSION/PLATE", "result": "inactive; negative"}, {"measurement": "mutagenic call", "setting": "Test System: CHINESE HAMSTER V-79, Strain/Indicator: V-79/6-THIOGUANINE, Metabolic Activation: RAT, LIVER, S-9, AROCLOR 1254, Method: SUSPENSION/PLATE", "result": "inactive; negative"}, {"measurement": "mutagenic call", "setting": "Test System: CHINESE HAMSTER V-79, Strain/Indicator: V-79/6-THIOGUANINE, Metabolic Activation: RAT, LIVER, S-9, PHENOBARBITAL AND BETA-NAPHTHOFLAVONE, Method: SUSPENSION/PLATE", "result": "inactive; negative"}, {"measurement": "mutagenic call", "setting": "Test System: MOUSE LYMPHOMA, Strain/Indicator: L5178Y (HGPRT)/6-THIOGUANINE, Metabolic Activation: NONE, Method: SUSPENSION/PLATE", "result": "inactive; negative"}, {"measurement": "mutagenic call", "setting": "Test System: MOUSE LYMPHOMA, Strain/Indicator: L5178Y (HGPRT)/6-THIOGUANINE, Metabolic Activation: RAT, LIVER, S-9, AROCLOR 1254, Method: SUSPENSION/PLATE", "result": "inactive; negative"}, {"measurement": "mutagenic call", "setting": "Test System: MOUSE LYMPHOMA, Strain/Indicator: L5178Y (HPRT), Metabolic Activation: NONE, Method: SUSPENSION/PLATE", "result": "inactive; negative"}, {"measurement": "mutagenic call", "setting": "Test System: MOUSE LYMPHOMA, Strain/Indicator: L5178Y (TK+/TK-)/TRIFLUOROTHYMIDINE, Metabolic Activation: NONE, Method: SUSPENSION/PLATE", "result": "active; positive"}, {"measurement": "mutagenic call", "setting": "Test System: MOUSE LYMPHOMA, Strain/Indicator: L5178Y (TK+/TK-)/TRIFLUOROTHYMIDINE, Metabolic Activation: RAT, LIVER, S-9, AROCLOR 1254, Method: SUSPENSION/PLATE", "result": "active; positive"}, {"measurement": "mutagenic call", "setting": "Test System: MOUSE LYMPHOMA, Strain/Indicator: L5178Y (TK+/TK-), Metabolic Activation: NONE, Method: SUSPENSION/PLATE", "result": "active; positive"}, {"measurement": "mutagenic call", "setting": "Test System: MOUSE LYMPHOMA, Strain/Indicator: L5178Y (TK+/TK-), Metabolic Activation: RAT, LIVER, S-9, AROCLOR 1254, Method: SUSPENSION/PLATE", "result": "active; positive"}, {"measurement": "mutagenic call", "setting": "Test System: MOUSE LYMPHOMA, Strain/Indicator: L5178Y (TK+/TK-), Metabolic Activation: S-9, Method: SUSPENSION/PLATE", "result": "active; positive"}, {"measurement": "mutagenic call", "setting": "Test System: UDS RODENT HEPATOCYTES, Strain/Indicator: THY INCORP (NON-S-PHASE), Method: AUTORADIOGRAPHY", "result": "active; positive"}]}
